Where only a bound is given, the exact number is not on record here.

One test concerns the target T1, α,α-Trehalase (Sus scrofa, UniProt I3LIR5).
T1 sequence (I3LIR5 24-556): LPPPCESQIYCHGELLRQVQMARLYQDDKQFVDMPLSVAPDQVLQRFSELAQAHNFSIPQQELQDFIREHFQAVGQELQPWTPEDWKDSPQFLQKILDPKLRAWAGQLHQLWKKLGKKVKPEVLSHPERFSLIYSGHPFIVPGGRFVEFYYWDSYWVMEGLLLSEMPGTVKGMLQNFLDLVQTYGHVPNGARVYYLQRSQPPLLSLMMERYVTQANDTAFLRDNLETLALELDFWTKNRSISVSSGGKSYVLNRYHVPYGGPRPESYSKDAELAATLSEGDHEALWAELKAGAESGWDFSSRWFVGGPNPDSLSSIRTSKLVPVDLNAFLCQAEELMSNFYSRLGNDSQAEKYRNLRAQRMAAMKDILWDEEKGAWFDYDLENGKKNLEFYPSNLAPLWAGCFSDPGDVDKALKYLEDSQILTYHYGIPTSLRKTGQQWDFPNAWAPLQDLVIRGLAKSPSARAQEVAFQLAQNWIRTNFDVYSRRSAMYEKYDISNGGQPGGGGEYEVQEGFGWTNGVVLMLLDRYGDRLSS
As to the kind of experiment: glycosidase inhibition assay, porcine kidney α,α-trehalase. In kind it is biochemical. Here is the method: (§1) With rat intestinal maltase as an exception, other enzymes were purchased from Sigma-Aldrich Chemical Co. (St. Louis, Mo. USA). Brush border membranes prepared from rat small intestine according to the method of Kessler et al. were assayed at pH 6.8 for rat intestinal maltase using maltose. The released D-glucose was determined colorimetrically using the Glucose CII-test Wako (Wako Pure Chemical Ind.; Osaka, Japan). Other glycosidase activities were determined using an appropriate p-nitrophenyl glycoside as substrate in a buffer solution at the optimal pH value of each enzyme. The reaction was stopped by adding 400 mM Na2CO3. The released p-nitrophenol was measured spectrometrically at 400 nm.

A further test deals with T2, α-Glucosidase (Oryza sativa subsp. japonica, UniProt Q653V7).
T2 construct: purchased Sigma-Aldrich Chemical Co
As to the kind of experiment: glycosidase inhibition assay, rice α-glucosidase. The format is biochemical. The conditions noted are these: for inhibition at 100 µM: α-Glucosidase, Rice. How it is done:
as §1

The target in the next test is Rat intestinal maltase. As to the kind of experiment: rat intestinal maltase inhibition (brush border membranes, maltose). In kind it is biochemical. The conditions noted are these: for inhibition %: at 100 μM. Here is the method: as §1
In the next test the target is T3, α-L-Fucosidase (Bos taurus, UniProt Q2KIM0).
T3 construct: purchased Sigma-Aldrich Chemical Co; host or cells: bovine kidney
T3 sequence (Q2KIM0 23-468): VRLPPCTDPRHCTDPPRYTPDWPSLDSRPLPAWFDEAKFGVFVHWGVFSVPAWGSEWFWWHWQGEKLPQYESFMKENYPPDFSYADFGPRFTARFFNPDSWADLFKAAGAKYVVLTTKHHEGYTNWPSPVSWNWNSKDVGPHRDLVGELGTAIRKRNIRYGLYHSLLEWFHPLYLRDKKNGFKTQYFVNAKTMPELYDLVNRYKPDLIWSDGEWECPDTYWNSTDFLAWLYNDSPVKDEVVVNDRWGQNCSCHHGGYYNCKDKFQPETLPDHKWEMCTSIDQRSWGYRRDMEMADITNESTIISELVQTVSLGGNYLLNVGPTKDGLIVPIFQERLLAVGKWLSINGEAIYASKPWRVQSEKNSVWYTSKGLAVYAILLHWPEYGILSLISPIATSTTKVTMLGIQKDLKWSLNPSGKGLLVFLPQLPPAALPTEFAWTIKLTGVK
As to the kind of experiment: glycosidase inhibition assay, bovine kidney α-L-fucosidase. The format is biochemical. How it is done: as §1

A further test addresses T4, β-Glucosidase (Bos taurus, UniProt F1MNT6).
T4 sequence (F1MNT6 1-469): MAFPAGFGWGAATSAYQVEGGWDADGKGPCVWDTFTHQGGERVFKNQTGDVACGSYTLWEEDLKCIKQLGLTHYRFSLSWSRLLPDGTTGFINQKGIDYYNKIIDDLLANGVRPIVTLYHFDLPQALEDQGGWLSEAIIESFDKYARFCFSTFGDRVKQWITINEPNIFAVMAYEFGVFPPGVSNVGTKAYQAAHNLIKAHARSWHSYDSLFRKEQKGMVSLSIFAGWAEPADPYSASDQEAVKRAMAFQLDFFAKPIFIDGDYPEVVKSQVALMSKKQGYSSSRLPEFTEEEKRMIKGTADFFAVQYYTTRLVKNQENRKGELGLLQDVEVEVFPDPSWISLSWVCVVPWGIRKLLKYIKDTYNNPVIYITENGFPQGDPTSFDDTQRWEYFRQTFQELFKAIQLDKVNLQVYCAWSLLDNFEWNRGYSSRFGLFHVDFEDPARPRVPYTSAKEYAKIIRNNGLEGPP
As to the kind of experiment: glycosidase inhibition assay, bovine liver β-glucosidase. The format is biochemical. Here is the method: as §1

The target in a further test is T5, α-Mannosidase (Canavalia ensiformis, UniProt C0HJB3).
T5 construct: purchased Sigma-Aldrich Chemical Co
T5 sequence (C0HJB3 1-981): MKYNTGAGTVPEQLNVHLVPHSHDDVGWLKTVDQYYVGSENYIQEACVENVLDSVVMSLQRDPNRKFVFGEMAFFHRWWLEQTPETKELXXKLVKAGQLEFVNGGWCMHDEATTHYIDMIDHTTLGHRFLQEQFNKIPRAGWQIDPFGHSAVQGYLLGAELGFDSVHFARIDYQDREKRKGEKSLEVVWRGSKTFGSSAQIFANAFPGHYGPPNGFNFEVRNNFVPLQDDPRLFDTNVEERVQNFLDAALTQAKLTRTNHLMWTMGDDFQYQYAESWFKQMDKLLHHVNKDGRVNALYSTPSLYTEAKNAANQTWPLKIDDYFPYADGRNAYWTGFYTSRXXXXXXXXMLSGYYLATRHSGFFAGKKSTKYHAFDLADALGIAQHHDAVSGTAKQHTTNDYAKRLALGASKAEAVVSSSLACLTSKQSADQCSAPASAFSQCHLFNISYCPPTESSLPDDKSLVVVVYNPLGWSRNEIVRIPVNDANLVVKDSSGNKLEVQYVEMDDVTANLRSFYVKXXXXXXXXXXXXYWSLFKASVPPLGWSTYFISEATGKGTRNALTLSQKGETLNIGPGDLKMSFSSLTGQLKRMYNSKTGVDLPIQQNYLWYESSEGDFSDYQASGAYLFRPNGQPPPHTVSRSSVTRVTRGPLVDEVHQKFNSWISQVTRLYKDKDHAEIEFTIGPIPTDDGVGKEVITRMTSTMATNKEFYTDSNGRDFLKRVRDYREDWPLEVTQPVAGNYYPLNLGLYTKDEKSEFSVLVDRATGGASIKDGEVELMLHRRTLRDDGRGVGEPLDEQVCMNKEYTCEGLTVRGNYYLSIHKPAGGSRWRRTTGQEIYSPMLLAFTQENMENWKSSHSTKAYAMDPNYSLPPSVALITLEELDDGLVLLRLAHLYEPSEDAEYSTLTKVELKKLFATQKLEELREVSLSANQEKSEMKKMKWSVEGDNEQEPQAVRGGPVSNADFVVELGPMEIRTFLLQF
As to the kind of experiment: glycosidase inhibition assay, jack bean α-mannosidase. In kind it is biochemical. How it is done: as §1

The target of a further test is β-Galactosidase. Conditions: β-galactosidase from bovine liver; natural product isolated by Kusano’s group; cited from earlier work.

T2 sequence (Q653V7 34-885): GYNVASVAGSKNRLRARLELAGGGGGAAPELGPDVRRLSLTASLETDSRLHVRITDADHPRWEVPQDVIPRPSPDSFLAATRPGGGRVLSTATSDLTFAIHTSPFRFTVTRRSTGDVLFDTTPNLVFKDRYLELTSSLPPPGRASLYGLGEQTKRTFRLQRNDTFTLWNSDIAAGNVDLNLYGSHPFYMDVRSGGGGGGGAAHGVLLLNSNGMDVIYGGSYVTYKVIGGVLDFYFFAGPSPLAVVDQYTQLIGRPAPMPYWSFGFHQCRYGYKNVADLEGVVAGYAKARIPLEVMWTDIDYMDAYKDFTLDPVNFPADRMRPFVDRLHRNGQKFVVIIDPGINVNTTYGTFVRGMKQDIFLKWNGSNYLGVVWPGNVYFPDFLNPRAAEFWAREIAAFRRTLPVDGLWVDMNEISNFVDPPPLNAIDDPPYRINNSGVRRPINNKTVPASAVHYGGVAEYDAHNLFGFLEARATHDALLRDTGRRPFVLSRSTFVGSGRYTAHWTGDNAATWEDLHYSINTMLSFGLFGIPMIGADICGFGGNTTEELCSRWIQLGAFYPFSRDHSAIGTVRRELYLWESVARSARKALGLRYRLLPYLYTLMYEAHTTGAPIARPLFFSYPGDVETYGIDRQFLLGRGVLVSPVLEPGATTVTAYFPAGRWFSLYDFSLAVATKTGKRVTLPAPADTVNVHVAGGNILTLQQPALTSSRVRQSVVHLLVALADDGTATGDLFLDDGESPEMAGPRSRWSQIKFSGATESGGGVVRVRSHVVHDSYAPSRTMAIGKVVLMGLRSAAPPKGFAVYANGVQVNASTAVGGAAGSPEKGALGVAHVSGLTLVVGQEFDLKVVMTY

Usually inhibition stands for how much of the control response was suppressed. The low end stands for a weak effect, the high end for a strong effect. A word on the IC50: it is the concentration that inhibits the measured activity by half. For the compound `OCCC[C@H](O)CCCCCCCCC[C@@H]1N[C@@H](CO)[C@H](O)[C@H]1O` [ent-3, (2S,3S,4S,5S)-2-hydroxymethyl-3,4-dihydroxyl-5-((10S)-10,13-(dihydroxyl)dec-1-yl) pyrrolidine], the inhibition at 100 µM amounted to 2.1% at α,α-Trehalase, 0% on α-L-Fucosidase, 46.5% at β-Glucosidase and 2.2% on α-Mannosidase. The IC50 is 1.2 µM against α-Glucosidase, 0.29 µM against Rat intestinal maltase, more than 100 µM against α-L-Fucosidase and more than 100 µM against α-Mannosidase.
Turning to `OCCC[C@@H](O)CCCCCCCCC[C@@H]1N[C@@H](CO)[C@H](O)[C@H]1O` [ent-10’-epi-3], the inhibition at 100 µM turned out to be 0% at α,α-Trehalase, 6.1% against α-L-Fucosidase and 1.8% against α-Mannosidase. Besides, the figures for the IC50 against α-Glucosidase, against α-L-Fucosidase and at α-Mannosidase were 1.3 µM, more than 100 µM and more than 100 µM, respectively.
Consider `OCCC[C@H](O)CCCCCCCCC[C@@H]1N[C@@H](CO)[C@@H](O)[C@H]1O` [ent-3-epi-3, (2S,3R,4S,5S)-2-hydroxymethyl-3,4-dihydroxyl-5-((10S)-10,13-(dihydroxyl)dec-1-yl) pyrrolidine], for which the inhibition at 100 µM on α,α-Trehalase amounted to 0%; against α-Glucosidase, 23%; against α-Mannosidase it was 1.3%. Moreover, the half-inhibitory concentration (IC50) was more than 100 µM against α-Glucosidase, 42 µM against Rat intestinal maltase, 50 µM against α-L-Fucosidase and more than 100 µM against α-Mannosidase.
As for `OCCCC(O)CCCCCCCCCC1NC(CO)C(O)C1O` [2,10-di-epi-3, (2S,3R,4R,5R)-2-hydroxymethyl-3,4-dihydroxyl-5-((10S)-10,13-(dihydroxyl)dec-1-yl) pyrrolidine], the inhibition at 100 µM is 0% at α,α-Trehalase, 10.8% on α-L-Fucosidase and 0.32% against α-Mannosidase. In addition, the half-maximal inhibitory concentration (IC50) was 12 µM at α-Glucosidase, 1.4 µM against Rat intestinal maltase, more than 100 µM against α-L-Fucosidase and more than 100 µM against α-Mannosidase.
As to `OCCC[C@H](O)CCCCCCCCC[C@H]1N[C@H](CO)[C@@H](O)[C@@H]1O` [10’-epi-3, (2R,3R,4R,5R)-2-hydroxymethyl-3,4-dihydroxyl-5-((10S)-10,13-(dihydroxyl)dec-1-yl) pyrrolidine], the inhibition at 100 µM on α,α-Trehalase, against α-Glucosidase, at α-L-Fucosidase and against α-Mannosidase was 0% each time. Further, the IC50 at α-Glucosidase, against Rat intestinal maltase, against α-L-Fucosidase and against α-Mannosidase was more than 100 µM in each case. The compound also yielded an inhibition % in the test on Rat intestinal maltase of 26.4%.
Turning to `OCCC[C@@H](O)CCCCCCCCC[C@H]1N[C@H](CO)[C@@H](O)[C@@H]1O` [compound 3, (2R,3R,4R,5R)-2-hydroxymethyl-3,4-dihydroxyl-5-((10R)-10,13-(dihydroxyl)dec-1-yl)pyrrolidine], the IC50 at β-Galactosidase was 8.1 µM; against α-Glucosidase, more than 100 µM; at Rat intestinal maltase it was more than 100 µM; against α-L-Fucosidase, more than 100 µM; on α-Mannosidase, more than 100 µM. Besides, the inhibition at 100 µM at α,α-Trehalase is 0%; against α-Glucosidase, 0%; at α-L-Fucosidase it was 0%; on α-Mannosidase, 2.5%. Besides, the inhibition % with Rat intestinal maltase is on record as 0%.
Consider `OCCC[C@@H](O)CCCCCCCCC[C@H]1N[C@@H](CO)[C@@H](O)[C@@H]1O` [2-epi-3, (2S,3R,4R,5R)-2-hydroxymethyl-3,4-dihydroxyl-5-((10R)-10,13-(dihydroxyl)dec-1-yl) pyrrolidine], for which the inhibition at 100 µM was found to be 0% on α,α-Trehalase, 5.6% on α-Glucosidase, 4.3% against α-L-Fucosidase and 0% at α-Mannosidase. The IC50 at α-Glucosidase, against Rat intestinal maltase, at α-L-Fucosidase and against α-Mannosidase was more than 100 µM throughout. This compound also returned an inhibition % in the test with Rat intestinal maltase of 16.8%.
Consider `OCCC[C@@H](O)CCCCCCCCC[C@@H]1N[C@@H](CO)[C@@H](O)[C@H]1O` [ent-3,10-di-epi-3], for which the inhibition at 100 µM against α,α-Trehalase is 3.8%; against α-Glucosidase it was 9.5%; at α-Mannosidase, 0%. Moreover, the IC50 is more than 100 µM against α-Glucosidase, 84 µM against Rat intestinal maltase, 98 µM at α-L-Fucosidase and more than 100 µM against α-Mannosidase.

(Values after paper PMC6832352, “Synthesis and Glycosidase Inhibition of Broussonetine M and Its Analogues” (Molecules, 2019).)
